Measured values as given in patent publication US8063048B2, “Acetylenyl-pyrazolo-pyrimidine derivatives” (Hoffmann-La Roche Inc., priority 2005, dated 2011).

Compound | melting point
COc1ccc(C#Cc2cnn3c(C4CC4)cc(-c4ccc(Cl)cc4)nc23)cc1S(=O)(=O)NC(C)(C)CO [Example 69, 5-[5-(4-Chloro-phenyl)-7-cyclopropyl-pyrazolo[1,5-a]pyrimidin-3-ylethynyl]-N-(2-hydroxy-1,1-dimethyl-ethyl)-2-methoxy-benzenesulfonamide] | 253 to 256 °C
CC(C)(CO)NS(=O)(=O)c1cnc(C#Cc2cnn3c(C4CC4)cc(-c4ccc(C(F)(F)F)cc4)nc23)s1 [Example 82, 2-[7-Cyclopropyl-5-(4-trifluoromethyl-phenyl)-pyrazolo[1,5-a]pyrimidin-3-ylethynyl]-thiazole-5-sulfonic acid (2-hydroxy-1,1-dimethyl-ethyl)-amide] | 243 to 245 °C
CN(C)CCNS(=O)(=O)c1ccc(C#Cc2cnn3c(C(F)(F)F)cc(-c4ccc(C(F)(F)F)cc4)nc23)s1 [Example 159, 5-[7-Trifluoromethyl-5-(4-trifluoromethyl-phenyl)-pyrazolo[1,5-a]pyrimidin-3-ylethynyl]-thiophene-2-sulfonic acid (2-dimethylamino-ethyl)-amide] | 178 °C
NS(=O)(=O)c1cncc(C#Cc2cnn3c(C(F)F)cc(-c4ccc(C(F)(F)F)cc4)nc23)c1 [Example 30, 5-[7-Difluoromethyl-5-(4-trifluoromethyl-phenyl)-pyrazolo[1,5-a]pyrimidin-3-ylethynyl]-pyridine-3-sulfonic acid amide] | 238 °C
CN(C)CCNS(=O)(=O)c1ccc(C#Cc2cnn3c(C(F)F)cc(-c4ccc(C(F)(F)F)cc4)nc23)cc1 [Example 141, 4-[7-Difluoromethyl-5-(4-trifluoromethyl-phenyl)-pyrazolo[1,5-a]pyrimidin-3-ylethynyl]-N-(2-dimethylamino-ethyl)-benzenesulfonamide] | 157 to 159 °C
COc1ncc(S(=O)(=O)NC(C)(C)CO)cc1C#Cc1cnn2c(C(F)(F)F)cc(-c3ccc(C(F)(F)F)cc3)nc12 [Example 18, 6-Methoxy-5-[7-trifluoromethyl-5-(4-trifluoromethyl-phenyl)-pyrazolo[1,5-a]pyrimidin-3-ylethynyl]-pyridine-3-sulfonic acid (2-hydroxy-1,1-dimethyl-ethyl)-amide] | 209 to 210 °C
NS(=O)(=O)c1cc(C#Cc2cnn3c(C(F)(F)F)cc(-c4cccc(C(F)(F)F)c4)nc23)c(F)cc1F [Example 116, 2,4-Difluoro-5-[7-trifluoromethyl-5-(3-trifluoromethyl-phenyl)-pyrazolo[1,5-a]pyrimidin-3-ylethynyl]-benzenesulfonamide] | 264 °C
NS(=O)(=O)c1ccc(C#Cc2cnn3c(C(F)(F)F)cc(-c4ccc(C(F)(F)F)cc4)nc23)cc1 [Example 36, 4-[7-Trifluoromethyl-5-(4-trifluoromethyl-phenyl)-pyrazolo[1,5-a]pyrimidin-3-ylethynyl]-benzenesulfonamide] | 266 to 267 °C
FC(F)(F)c1ccc(-c2cc(C(F)(F)F)n3ncc(C#Cc4cccnc4)c3n2)cc1 [Example 3, 3-Pyridin-3-ylethynyl-7-trifluoromethyl-5-(4-trifluoromethyl-phenyl)-pyrazolo[1,5-a]pyrimidine] | 187 to 188 °C
Cc1cc(-c2cc(C(F)(F)F)n3ncc(C#Cc4ccc(S(=O)(=O)NC(C)(C)C)s4)c3n2)ccc1Cl [Example 115, 5-[5-(4-Chloro-3-methyl-phenyl)-7-trifluoromethyl-pyrazolo[1,5-a]pyrimidin-3-ylethynyl]-thiophene-2-sulfonic acid tert-butylamide] | 244 °C
NS(=O)(=O)c1ccc(C#Cc2cnn3c(C(F)F)cc(-c4ccc(C(F)(F)F)cc4)nc23)cc1 [Example 49, 4-[7-Difluoromethyl-5-(4-trifluoromethyl-phenyl)-pyrazolo[1,5-a]pyrimidin-3-ylethynyl]-benzenesulfonamide] | 254 °C
Cc1cc(C#Cc2cnn3c(C(F)F)cc(-c4ccc(C(F)(F)F)cc4)nc23)cnc1N [Example 142, 5-[7-Difluoromethyl-5-(4-trifluoromethyl-phenyl)-pyrazolo[1,5-a]pyrimidin-3-ylethynyl]-3-methyl-pyridin-2-ylamine] | 194 to 195 °C
CC(C)(CO)NS(=O)(=O)c1ccc(C#Cc2cnn3c(C(F)(F)F)cc(-c4ccc(C(F)(F)F)cc4)nc23)s1 [Example 120, 5-[7-Trifluoromethyl-5-(4-trifluoromethyl-phenyl)-pyrazolo[1,5-a]pyrimidin-3-ylethynyl]-thiophene-2-sulfonic acid (2-hydroxy-1,1-dimethyl-ethyl)-amide] | 272 °C
COc1ncc(S(=O)(=O)NC(C)(CO)CO)cc1C#Cc1cnn2c(C(F)(F)F)cc(-c3ccc(C(F)(F)F)cc3)nc12 [Example 25, 6-Methoxy-5-[7-trifluoromethyl-5-(4-trifluoromethyl-phenyl)-pyrazolo[1,5-a]pyrimidin-3-ylethynyl]-pyridine-3-sulfonic acid (2-hydroxy-1-hydroxymethyl-1-methyl-ethyl)-amide] | 233 to 235 °C
NS(=O)(=O)c1cccc(C#Cc2cnn3c(C4CC4)cc(-c4ccc(Cl)c(Cl)c4)nc23)c1 [Example 87, 3-[7-Cyclopropyl-5-(3,4-dichloro-phenyl)-pyrazolo[1,5-a]pyrimidin-3-ylethynyl]-benzenesulfonamide] | 200 to 202 °C
CC(C)(CO)NS(=O)(=O)c1cncc(C#Cc2cnn3c(C(F)F)cc(-c4ccc(C(F)(F)F)cc4)nc23)c1 [Example 27, 5-[7-Difluoromethyl-5-(4-trifluoromethyl-phenyl)-pyrazolo[1,5-a]pyrimidin-3-ylethynyl]-pyridine-3-sulfonic acid (2-hydroxy-1,1-dimethyl-ethyl)-amide] | 200 to 201 °C
CN(C)CCNS(=O)(=O)c1cccc(C#Cc2cnn3c(C(F)(F)F)cc(-c4ccc(C(F)(F)F)cc4)nc23)c1 [Example 133, N-(2-Dimethylamino-ethyl)-3-[7-trifluoromethyl-5-(4-trifluoromethyl-phenyl)-pyrazolo[1,5-a]pyrimidin-3-ylethynyl]-benzenesulfonamide] | 146 to 147 °C
FC(F)(F)c1ccc(-c2cc(C(F)(F)F)n3ncc(C#Cc4ccc(C5CC5)nc4)c3n2)cc1 [Example 10, 3-(2-Cyclopropyl-pyridin-5-ylethynyl)-7-trifluoromethyl-5-(4-trifluoromethyl-phenyl)-pyrazolo[1,5-a]pyrimidine] | 138 to 140 °C
CS(=O)(=O)c1cncc(C#Cc2cnn3c(C(F)(F)F)cc(-c4ccc(C(F)(F)F)cc4)nc23)c1 [Example 38, 3-(5-Methanesulfonyl-pyridin-3-ylethynyl)-7-trifluoromethyl-5-(4-trifluoromethyl-phenyl)-pyrazolo[1,5-a]pyrimidine] | 241 to 242 °C

Now from value to compound:

melting point | Compound
152 °C | O=S(=O)(NC(CO)CO)c1ccc(C#Cc2cnn3c(C(F)F)cc(-c4ccc(C(F)(F)F)cc4)nc23)s1 [Example 270, 5-[7-Difluoromethyl-5-(4-trifluoromethyl-phenyl)-pyrazolo[1,5-a]pyrimidin-3-ylethynyl]-thiophene-2-sulfonic acid (2-hydroxy-1-hydroxymethyl-ethyl)-amide]
230 to 233 °C | Cc1cc(-c2ccc(Cl)cc2)nc2c(C#Cc3ccc(S(N)(=O)=O)cc3)cnn12 [Example 292, 4-[5-(4-Chloro-phenyl)-7-methyl-pyrazolo[1,5-a]pyrimidin-3-ylethynyl]-benzenesulfonamide]
286 °C | NC(=O)c1ccc(C#Cc2cnc3c(C(F)(F)F)cc(-c4ccc(C(F)(F)F)cc4)cn23)cc1 [Example 203, 4-[8-Trifluoromethyl-6-(4-trifluoromethyl-phenyl)-imidazo[1,2-a]pyridin-3-ylethynyl]-benzamide]
225 °C | NS(=O)(=O)c1ccc(C#Cc2cnn3c(C(F)F)cc(-c4cccc(C(F)(F)F)c4)nc23)s1 [Example 160, 5-[7-Difluoromethyl-5-(3-trifluoromethyl-phenyl)-pyrazolo[1,5-a]pyrimidin-3-ylethynyl]-thiophene-2-sulfonic acid amide]
201 °C | Cc1cc(-c2cc(C(F)(F)F)n3ncc(C#Cc4ccc(N)nc4)c3n2)ccc1C(F)(F)F [Example 289, 5-[5-(3-Methyl-4-trifluoromethyl-phenyl)-7-trifluoromethyl-pyrazolo[1,5-a]pyrimidin-3-ylethynyl]-pyridin-2-ylamine]
191 °C | CN1CCN(S(=O)(=O)c2ccc(C#Cc3cnn4c(C(F)(F)F)cc(-c5cccc(C(F)(F)F)c5)nc34)s2)CC1 [Example 249, 3-[5-(4-Methyl-piperazine-1-sulfonyl)-thiophen-2-ylethynyl]-7-trifluoromethyl-5-(3-trifluoromethyl-phenyl)-pyrazolo[1,5-a]pyrimidine]
245 °C | CCOc1cccc(-c2cc(C(F)F)n3ncc(C#Cc4ccc(S(N)(=O)=O)cc4)c3n2)c1 [Example 187, 4-[7-Difluoromethyl-5-(3-ethoxy-phenyl)-pyrazolo[1,5-a]pyrimidin-3-ylethynyl]-benzenesulfonamide]
264 °C | N#Cc1cc(C#Cc2cnn3c(C(F)(F)F)cc(-c4ccc(C(F)(F)F)cc4)nc23)cnc1N [Example 219, 2-Amino-5-[7-trifluoromethyl-5-(4-trifluoromethyl-phenyl)-pyrazolo[1,5-a]pyrimidin-3-ylethynyl]-nicotinonitrile]
228 to 231 °C | Nc1ccc(C#Cc2cnn3c(C4CC4)cc(-c4ccc(C(F)(F)F)cc4)nc23)cn1 [Example 293, 5-[7-Cyclopropyl-5-(4-trifluoromethyl-phenyl)-pyrazolo[1,5-a]pyrimidin-3-ylethynyl]-pyridin-2-ylamine]
245 °C | NS(=O)(=O)c1ccc(C#Cc2cnn3c(C(F)F)cc(-c4cccc(C(F)(F)F)c4)nc23)cc1 [Example 176, 4-[7-Difluoromethyl-5-(3-trifluoromethyl-phenyl)-pyrazolo[1,5-a]pyrimidin-3-ylethynyl]-benzenesulfonamide]
239 to 240 °C | Cc1cc(-c2ccc(C(F)(F)F)cc2)cn2c(C#Cc3ccc(N)nc3)cnc12 [Example 209, 5-[8-Methyl-6-(4-trifluoromethyl-phenyl)-imidazo[1,2-a]pyridin-3-ylethynyl]-pyridin-2-ylamine]
